The text below walks through data of patent publication US20210277102A1, “COMPOSITIONS AND METHODS FOR TREATING A TUMOR SUPPRESSOR DEFICIENT CANCER” (BETH ISRAEL DEACONESS MEDICAL CENTER, INC., priority 2016, published 2021).

The structures appear in SMILES notation.

The assay relates to Pten^pc−/−; Pml^pc−/− prostate tumors. Description: In vivo CXCR2 antagonist treatment of Pten^pc−/−; Pml^pc−/− mice (MRI, flow cytometry). More on the design: species or system mouse. Particulars: for tumor growth (tumor volume by MRI): Pml^pc−/− mice, 5 mg/kg intraperitoneal daily for 14 days, vs vehicle, 5 mg/kg. On the procedure:
Mice were allocated at random to experimental groups and studies were performed in an unblended manner. For treatment with the CXCR2 antagonist, SB225002 (Cayman Chemical #13336) was dissolved in DMSO (10 mg/ml) and diluted in vehicle (0.9% NaCl, 0.3% Tween 80) for in vivo administration. Mice (4 months of age) were treated daily for 10 days by intraperitoneal injection (5 mg/kg) and prostate tumor tissue (anterior lobes) was subjected to Flow Cytometry and histological analysis. For MRI analysis, mice (4 months of age) were treated daily for 21 days (Pten^pc-/-; Zbtb7a^pc-/-), for 14 days (Pten^pc-/-; Trp53^pc-/-) or for 14 days (Pten^pc-/-; Pml^pc-/-) by intraperitoneal injection (5 mg/kg). For depletion of Gr-1+/CD11b+ cells, Ly6G-depletion antibody (1A8, BioXcell) and control Rat IgG2a antibody (BioXcell) were diluted in phosphate-buffered saline (PBS) for in vivo administration. Mice (4 months of age) were treated every other day for 10 days by intraperitoneal injection (200-300 μg/mouse). InVivoMAb anti-mouse Ly6G/Ly6C (Gr-1) antibody, clone RB6-8C5 (BE0075, BioXcell), and control Rat IgG2b antibody (BE0090, BioXcell) were diluted in PBS and Pten^pc-/-; Trp53^pc-/- mice were treated every other day for 14 days by intraperitoneal injection (200 μg/mouse). For neutralization of CXCL5, anti-Mouse CXCL5 antibody (Leinco Technologies) and control Rat IgG2a antibody (BioXcell) were diluted in PBS and injected every other day for 21 days by intraperitoneal injection (20 μg/mouse). Tumor volume quantification was performed by using VivoQuant and Image J software. All mouse prostate MRI imaging analysis was performed at Small Animal Imaging Core at BIDMC and acquired on an […] Model M2 1T tabletop scanner. For Flow Cytometry, spleen and lymph node single cell suspensions were prepared by mashing the tissue in 2% FBS/PBS. […] All staining mixtures were analyzed on a BD LSR II flow cytometer (Becton Dickinson). Resulting profiles were further processed and analyzed using the FlowJo 8.7 software.
(Flow cytometry measures light scatter and fluorescence of single cells or particles in a stream.)

Take `O=C(Nc1ccc([N+](=O)[O-])cc1O)Nc1ccccc1Br` [SB225002]: the “tumor growth (tumor volume by MRI)” value is “did not show any significant response”. Besides, the “tumor growth (tumor volume by MRI)” value (listed as CXCR2i) is recorded as “did not respond”. The “intra-tumoral Gr-1+/CD11b+ cells (flow cytometry)” value (Pml^pc−/− prostate tumors after treatment) is on record as “decrease of Gr-1+/CD11b+ cells”.
